Test system: GSK3β
Experiment: Inhibition of GSK3β during Neurog2-induced neuronal conversion of U251 cells
Type: cell-based, human

Structure (SMILES) | neuronal conversion efficiency of Neurog2-infected U251 cells (CHIR99021 5 μM for 20 days) | neuronal conversion efficiency of Neurog2-infected U251 cells (TWS119 10 μM for 20 days)
Cc1c[nH]c(-c2cnc(NCCNc3ccc(C#N)cn3)nc2-c2ccc(Cl)cc2Cl)n1 [CHIR99021] | decreased neuronal conversion efficiency | –
Nc1cccc(-c2cc3c(Oc4cccc(O)c4)ncnc3[nH]2)c1 [TWS119] | – | decreased neuronal conversion efficiency
